Measured values as given in the supplement of paper PMC10307832.

Assays:
Assay in all cases: relative viability (nuclei count vs DMSO), 5 days (fraction); higher = more cells survive
Dovitinib + Vorinostat = compound: CN1CCN(c2ccc3nc(-c4c(N)c5c(F)cccc5[nH]c4=O)[nH]c3c2)CC1 [Dovitinib] + O=C(CCCCCCC(=O)Nc1ccccc1)NO [Vorinostat] (partner 1 µM)
Summary of the method: (§1)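 Relative viability equals treated-well nuclei counts divided by vehicle-well nuclei counts. Counts came from 4× images of lung cancer cell lines grown in 1536-well plates for 5 days after pin-tool dosing on the day after seeding. Dosing used one drug alone or a fixed anchor-drug dose plus five library-drug doses (not always all listed) in √10 steps, and values are medians of duplicate plates.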

Dovitinib + Pemetrexed = compound: CN1CCN(c2ccc3nc(-c4c(N)c5c(F)cccc5[nH]c4=O)[nH]c3c2)CC1 [Dovitinib] + Nc1nc2[nH]cc(CCc3ccc(C(=O)N[C@@H](CCC(=O)O)C(=O)O)cc3)c2c(=O)[nH]1 [Pemetrexed] (partner 0.2 µM)
Summary of the method: as §1

Dovitinib + Dasatinib = compound: CN1CCN(c2ccc3nc(-c4c(N)c5c(F)cccc5[nH]c4=O)[nH]c3c2)CC1 [Dovitinib] + Cc1nc(Nc2ncc(C(=O)Nc3c(C)cccc3Cl)s2)cc(N2CCN(CCO)CC2)n1 [Dasatinib] (partner 0.075 µM)
Summary of the method: as §1

Dovitinib + Palbociclib = compound: CN1CCN(c2ccc3nc(-c4c(N)c5c(F)cccc5[nH]c4=O)[nH]c3c2)CC1 [Dovitinib] + CC(=O)c1c(C)c2cnc(Nc3ccc(N4CCNCC4)cn3)nc2n(C2CCCC2)c1=O [Palbociclib] (partner 0.5 µM)
Summary of the method: as §1

Cell Line | relative viability (Dovitinib + Vorinostat; first compound 0.02 µM) | relative viability (Dovitinib + Vorinostat; first compound 0.06325 µM) | relative viability (Dovitinib + Vorinostat; first compound 0.2 µM) | relative viability (Dovitinib + Vorinostat; first compound 0.6325 µM) | relative viability (Dovitinib + Vorinostat; first compound 2 µM) | relative viability (Dovitinib + Pemetrexed; first compound 0.02 µM) | relative viability (Dovitinib + Pemetrexed; first compound 0.06325 µM) | relative viability (Dovitinib + Pemetrexed; first compound 0.2 µM) | relative viability (Dovitinib + Pemetrexed; first compound 0.6325 µM) | relative viability (Dovitinib + Pemetrexed; first compound 2 µM) | relative viability (Dovitinib + Dasatinib; first compound 0.02 µM) | relative viability (Dovitinib + Dasatinib; first compound 0.06325 µM) | relative viability (Dovitinib + Dasatinib; first compound 0.2 µM) | relative viability (Dovitinib + Dasatinib; first compound 0.6325 µM) | relative viability (Dovitinib + Dasatinib; first compound 2 µM) | relative viability (Dovitinib + Palbociclib; first compound 0.02 µM) | relative viability (Dovitinib + Palbociclib; first compound 0.06325 µM) | relative viability (Dovitinib + Palbociclib; first compound 0.2 µM) | relative viability (Dovitinib + Palbociclib; first compound 0.6325 µM) | relative viability (Dovitinib + Palbociclib; first compound 2 µM)
NCI-H1793 | 1.01 | 0.753 | 0.751 | 0.891 | 0.773 | 1.27 | 0.735 | 0.96 | 0.916 | 0.943 | 0.458 | 0.364 | 0.367 | 0.385 | 0.503 | 0.365 | 0.297 | 0.311 | 0.299 | 0.311
NCI-H1915 | 0.469 | 0.502 | 0.531 | 0.499 | 0.531 | 0.459 | 0.466 | 0.536 | 0.473 | 0.467 | 0.317 | 0.308 | 0.313 | 0.278 | 0.353 | 0.512 | 0.533 | 0.537 | 0.488 | 0.553
NCI-H1944 | 0.502 | 0.702 | 0.646 | 0.583 | 0.64 | 0.583 | 0.649 | 0.677 | 0.739 | 0.597 | 0.214 | 0.21 | 0.208 | 0.212 | 0.228 | 0.305 | 0.356 | 0.323 | 0.346 | 0.308
NCI-H1975 | 0.692 | 0.728 | 0.662 | 0.734 | 0.682 | 0.305 | 0.286 | 0.268 | 0.294 | 0.294 | 0.346 | 0.348 | 0.408 | 0.364 | 0.453 | 0.657 | 0.674 | 0.58 | 0.645 | 0.598
NCI-H1993 | 0.929 | 0.754 | 0.823 | 0.76 | 0.943 | 0.665 | 0.521 | 0.633 | 0.594 | 0.486 | 0.748 | 0.634 | 0.599 | 0.684 | 0.261 | 0.856 | 0.721 | 0.639 | 0.547 | 0.66
NCI-H2009 | 0.72 | 0.744 | 0.747 | 0.736 | 0.829 | 0.967 | 1.06 | 1.03 | 0.979 | 1.03 | 0.261 | 0.269 | 0.336 | 0.299 | 0.354 | 0.203 | 0.202 | 0.291 | 0.353 | 0.244
NCI-H2023 | 0.532 | 0.745 | 0.818 | 0.683 | 0.579 | 0.205 | 0.232 | 0.238 | 0.216 | 0.19 | 0.56 | 0.565 | 0.612 | 0.578 | 0.58 | 0.357 | 0.359 | 0.388 | 0.345 | 0.359
NCI-H2085 | 0.808 | 0.821 | 0.819 | 0.765 | 0.801 | 0.941 | 0.991 | 1.03 | 0.871 | 0.958 | 0.234 | 0.261 | 0.235 | 0.248 | 0.319 | 0.481 | 0.476 | 0.477 | 0.415 | 0.493
